Results: patent US20210353633A1, “CYCLODEXTRIN-BASED FORMULATION OF A BCL-2 INHIBITOR” (LES LABORATOIRES SERVIER, priority 2018, published 2021)
Where a name gives a salt, the structure may show the parent alone. Read-outs that look alike come from different tables or passages of the source.

Assay: Test of maximum solubility of Compound A, HCl in a HP-β-cyclodextrin as a function of the pH
Type: physicochemical
Conditions: Cavitron W7HP5 solution, aqueous with cosolvent or surfactant or cyclodextrin, thermodynamic from solid, Cavitron W7HP5 20% by weight, read-out: Solubility after 24 h
Description: The solubility of Compound A, HCl was studied in the presence of a HP-β-cyclodextrin as a function of the pH by means of various buffers (acetate pH=4 and phosphate pH=7.4).
0.75 g of sodium acetate trihydrate (NaC2H3O2, 3H2O) is introduced into a 250 mL graduated flask. 3.5 mL of 2 N acetic acid solution (produced from glacial acetic acid) are added. The volume is then made up to 250 mL by means of 0.9% NaCl solution, and the whole is then stirred. The pH is then adjusted to 4 by means of 1 N HCl solution.
2.075 g of monobasic potassium phosphate (KH2PO4) and 0.238 g of dibasic sodium phosphate (Na2HPO4) are dissolved in 100 mL of water. The whole is stirred until solubilisation is complete. The volume is then made up to 250 mL by means of 0.9% NaCl solution. The pH is adjusted to the desired value (7.4) by means of 1N sodium hydroxide solution.
2 g of the cyclodextrin studied (Cavitron™ W7HP5) are weighed into a 10 mL graduated flask. The volume is then made up to 10 mL by means of a water/0.9% NaCl mixture (80/20) or an acetate or phosphate buffer solution, depending on the desired pH.
Approximately 10 mg of Compound A, HCl are weighed. 1 mL of the medium containing the carrier to be tested, that is to say Cavitron™ W7HP5 without pH adjustment, Cavitron™ W7HP5 adjusted to pH=4 or Cavitron™ W7HP5 adjusted to pH=7.4, is then added. The whole is then placed under magnetic stirring. Then, 5 mg of Compound A, HCl are added. The operation is repeated if the compound solubilises. The mixture is stirred for 24 hours. The suspension so obtained is passed through a 0.45 μm filter before being analysed by HPLC chromatography.

- solubility at 24 h (pH = 3.8, i.e. pH not adjusted): 24.6 mg/mL
- solubility at 24 h (pH = 4 (acetate buffer)): 13 mg/mL
- solubility at 24 h (pH = 7.4 (phosphate buffer)): 1.69 mg/mL
SMILES: Cc1c(N(C(=O)c2cc(-c3cc(Cl)ccc3C(=O)N3Cc4ccccc4C[C@H]3CN3CCOCC3)n(C)c2C)c2ccc(O)cc2)cc(C#N)n1C [Compound A, HCl, 5-(5-chloro-2-{[(3S)-3-(morpholin-4-ylmethyl)-3,4-dihydroisoquinolin-2(1H)-yl]carbonyl}phenyl)-N-(5-cyano-1,2-dimethyl-1H-pyrrol-3-yl)-N-(4-hydroxyphenyl)-1,2-dimethyl-1H-pyrrole-3-carboxamide]
